Legend:
[1] = target: T1, Fructose-1,6-bisphosphatase 1 (Homo sapiens, UniProt P09467); assay: Concentration required to inhibit the human liver recombinant fructose-1,6-bisphosphatase.
T1 sequence (P09467 whole entry): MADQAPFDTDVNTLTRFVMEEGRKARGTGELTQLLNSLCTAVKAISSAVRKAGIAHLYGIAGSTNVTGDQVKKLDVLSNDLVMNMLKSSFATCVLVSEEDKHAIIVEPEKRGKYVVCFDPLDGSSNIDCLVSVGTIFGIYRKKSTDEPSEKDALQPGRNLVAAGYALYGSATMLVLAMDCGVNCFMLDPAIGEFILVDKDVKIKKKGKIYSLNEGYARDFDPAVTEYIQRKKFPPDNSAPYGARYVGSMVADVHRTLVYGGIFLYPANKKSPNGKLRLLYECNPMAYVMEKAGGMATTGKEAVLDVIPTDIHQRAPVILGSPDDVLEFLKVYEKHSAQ

Oryctolagus cuniculus = organism: Oryctolagus cuniculus; assay: Compound was evaluated for its concentration required to inhibit the rabbit liver F16BPase; format: functional
[2] = target: T2, Fructose-1,6-bisphosphatase 1 (Sus scrofa, UniProt P00636); assay: Compound was evaluated for its concentration required to inhibit the porcine kidney F16BPase
T2 sequence (P00636 whole entry): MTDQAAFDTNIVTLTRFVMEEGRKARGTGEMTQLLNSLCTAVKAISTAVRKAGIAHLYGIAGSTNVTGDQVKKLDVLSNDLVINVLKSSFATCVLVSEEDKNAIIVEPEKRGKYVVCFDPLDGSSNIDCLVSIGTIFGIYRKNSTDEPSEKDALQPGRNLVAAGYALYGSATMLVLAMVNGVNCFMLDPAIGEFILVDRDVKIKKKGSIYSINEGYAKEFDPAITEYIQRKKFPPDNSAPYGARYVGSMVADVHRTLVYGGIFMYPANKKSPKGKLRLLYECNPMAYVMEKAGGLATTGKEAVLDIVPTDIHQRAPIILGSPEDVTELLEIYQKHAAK

[3] = target: T3, Fructose-1,6-bisphosphatase 1 (Rattus norvegicus, UniProt P19112); assay: Compound was evaluated for its concentration required to inhibit the rat liver F16BPase
T3 sequence (P19112 whole entry): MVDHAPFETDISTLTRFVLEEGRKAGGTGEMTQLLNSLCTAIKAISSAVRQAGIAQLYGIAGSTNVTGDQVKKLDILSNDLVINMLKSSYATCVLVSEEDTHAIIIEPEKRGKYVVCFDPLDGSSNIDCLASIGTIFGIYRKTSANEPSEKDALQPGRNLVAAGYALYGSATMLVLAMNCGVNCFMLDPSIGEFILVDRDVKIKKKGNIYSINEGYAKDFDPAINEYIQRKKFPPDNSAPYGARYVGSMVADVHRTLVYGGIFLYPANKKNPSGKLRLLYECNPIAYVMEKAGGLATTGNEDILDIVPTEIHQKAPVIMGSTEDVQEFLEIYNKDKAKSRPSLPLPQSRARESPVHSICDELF

SMILES	IC50 [1]	IC50 (Oryctolagus cuniculus)	IC50 [2]	IC50 [3]
CCOc1cc2ncnc(Nc3cccc(C#N)c3)c2cc1OCC	> 10 µM			
O=C(O)c1ccc2c(Nc3cccc(Br)c3)ncnc2c1	> 10 µM			
CCOc1cc2ncnc(Nc3ccccc3)c2cc1OCC	> 10 µM			
CCOc1cc2ncnc(Nc3ccc(C)c(Cl)c3)c2cc1OCC	> 10 µM			
COCCOc1cc2ncnc(Nc3cccc(Br)c3)c2cc1OCCOC	> 10 µM			
CCOc1cc2nc(CC(C)C)nc(Nc3cccc(Br)c3)c2cc1OCC	> 10 µM			
CCOc1cc2nc(CCl)nc(Nc3cccc(Br)c3)c2cc1OCC	> 10 µM			
COc1cc2ncnc(Nc3cccc(Br)c3)c2cc1OC		> 10 µM	> 10 µM	> 10 µM
O=[N+]([O-])c1cc2c(Nc3cccc(Br)c3)ncnc2cc1Cl	> 10 µM			
CCCCOc1ccc2ncnc(Nc3cccc(Br)c3)c2c1	> 10 µM			
CCOc1cc2nc(CN(CC)CC)nc(Nc3cccc(Br)c3)c2cc1OCC	> 10 µM			
CCOc1cc2nc(CN3CCOCC3)nc(Nc3cccc(Br)c3)c2cc1OCC	> 10 µM			
CCOc1cc2nc(CS(C)(=O)=O)nc(Nc3cccc(Br)c3)c2cc1OCC	> 10 µM			
CC(C)Oc1ccc2ncnc(Nc3cccc(Br)c3)c2c1	> 10 µM			
CCOc1cc2nc(Cc3ccccc3)nc(Nc3cccc(Br)c3)c2cc1OCC	> 10 µM			
CCN(CC)c1nc(Nc2cccc(Br)c2)c2cc(OC)c(OC)cc2n1	> 10 µM			

Continued, values first:

IC50 [1]	IC50 (Oryctolagus cuniculus)	IC50 [2]	IC50 [3]	SMILES
> 10 µM				COc1cc2ncnc(Nc3cccc(Br)c3)c2cc1[N+](=O)[O-]
0.9 µM	> 10 µM	1.6 µM	> 10 µM	C#Cc1cccc(Nc2ncnc3cc(OC)c(OC)cc23)c1
> 10 µM				CCOc1cc2ncnc(Nc3ccc(Cl)c(Cl)c3)c2cc1OCC
> 10 µM				CCOc1cc2nc(-c3ccccc3)nc(Nc3cccc(Br)c3)c2cc1OCC
0.25 µM	> 10 µM	0.77 µM	> 10 µM	C#Cc1cc(Nc2ncnc3cc(OC)c(OC)cc23)ccc1F
2.4 µM				C#Cc1cccc(Nc2ncnc3cc(OCC)c(OCC)cc23)c1
9.2 µM				CCOc1cc2ncnc(Nc3cccc(F)c3)c2cc1OCC
4 µM				Brc1cccc(Nc2ncnc3cc4nc[nH]c4cc23)c1
0.29 µM	> 10 µM	0.34 µM	> 10 µM	COc1cc2ncnc(Nc3ccc(F)c(Cl)c3)c2cc1OC
1.3 µM	> 10 µM	> 10 µM	> 10 µM	COc1cc2ncnc(Nc3cccc(Cl)c3)c2cc1OC [TYRPHOSTIN AG-1478]
1.6 µM	> 10 µM	3.9 µM	> 10 µM	CCOc1cc2ncnc(Nc3cccc(Cl)c3)c2cc1OCC
2.9 µM				COCCOc1ccc2ncnc(Nc3cccc(Br)c3)c2c1
7.5 µM				Brc1cccc(Nc2ncnc3cc4ccccc4cc23)c1
1.7 µM	> 10 µM	> 10 µM	> 10 µM	CCOc1cc2ncnc(Nc3cccc(Br)c3)c2cc1OCC
11.9 µM				Nc1cc2c(Nc3cccc(Br)c3)ncnc2cc1Cl
5.5 µM				COCCOc1cc2c(Nc3cccc(Br)c3)ncnc2cc1OC
2.1 µM				CCOc1cc2ncnc(Nc3cccc(I)c3)c2cc1OCC
0.53 µM	> 10 µM	3.1 µM	> 10 µM	CCOc1cc2ncnc(Nc3ccc(F)c(Cl)c3)c2cc1OCC
4.5 µM				COc1cc2nc(C)nc(Nc3cccc(Br)c3)c2cc1OC
3.6 µM				CCOc1cc2ncnc(Nc3cccc(Br)c3)c2cc1[N+](=O)[O-]

Source: ChEMBL document CHEMBL1134043, “Allosteric inhibition of fructose-1,6-bisphosphatase by anilinoquinazolines” (Bioorg Med Chem Lett, 2001)
